Results reported in US8658660B2, “5-fluoro-4-imino-3,4-dihydropyrimidin-2-(1H)-ones derivatives” (Dow AgroSciences, LLC., priority 2011, dated 2014).

Key:
[1] = system: Mycosphaerella graminicola; anamorph: Septoria tritici (SEPTTR); experiment: Evaluation of fungicidal activity: leaf blotch of wheat (SEPTTR); format: in vivo, Septoria tritici on wheat plants (variety Yuma); details: wheat plants, percent control vs untreated inoculated plants
Procedure: Evaluation of Fungicidal Activity: Leaf Blotch of Wheat (Mycosphaerella graminicola; anamorph: Septoria tritici; Bayer code […]) Wheat plants (variety Yuma) were grown from seed in a greenhouse in 50% mineral soil/50% soil-less Metro mix until the first leaf was fully emerged, with 7-10 seedlings per pot. These plants were inoculated with an aqueous spore suspension of Septoria tritici either prior to or after fungicide treatments. After inoculation the plants were kept in 100% relative humidity (one day in a dark dew chamber followed by two to three days in a lighted dew chamber) to permit spores to germinate and infect the leaf. The plants were then transferred to a greenhouse for disease to develop. The following table presents the activity of typical compounds of the present disclosure when evaluated in these experiments. The effectiveness of the test compounds in controlling disease was determined by assessing the severity of disease on treated plants, then converting the severity to percent control based on the level of disease on untreated, inoculated plants.

[2] = system: Venturia inaequalis (VENTIN); experiment: Evaluation of fungicidal activity: apple scab (VENTIN); format: in vivo; details: apple seedlings, percent control vs untreated inoculated plants
Procedure: Evaluation of Fungicidal Activity: Apple Scab (Venturia inaequalis; Bayer code […]) Apple seedlings (McIntosh or Golden Delicious) were grown in Metro mix and inoculated with a spore suspension containing 5×10^5 spore/ml. Plants were placed in a dew room for 24 hours with 100% relative humidity and then transferred to a greenhouse with a temperature of 18° C. for disease to develop. The following table presents the activity of typical compounds of the present disclosure when evaluated in these experiments. The effectiveness of the test compounds in controlling disease was determined by assessing the severity of disease on treated plants, then converting the severity to percent control based on the level of disease on untreated, inoculated plants.

| SMILES | SEPTTR 100 PPM 1DP (One-Day Protectant activity, % disease control rating) [1] | SEPTTR 100 PPM 3DC (Three-Day Curative activity, % disease control rating) [1] | VENTIN 100 PPM 1DP (One-Day Protectant activity, % disease control rating) [2] |
| --- | --- | --- | --- |
| N=c1c(F)c[nH]c(=O)n1Cc1cccs1 [Cmpd 2, 5-fluoro-4-imino-3-(thiophen-2-ylmethyl)-3,4-dihydropyrimidin-2(1H)-one] | B (51-75) | A (76-100) | – |
| [2H]C([2H])([2H])n1c(=O)[nH]cc(F)c1=N [Cmpd 3, 5-fluoro-4-imino-3-(trideuteriomethyl)-1H-pyrimidin-2-one] | D (0-25) | D (0-25) | – |
| Cn1c(=O)[nH]cc(F)c1=N [Cmpd 1, 5-fluoro-4-imino-3-methyl-3,4-dihydropyrimidin-2(1H)-one] | A (76-100) | A (76-100) | B (51-75) |
